Measured values as given in patent US20220244279A1, “ASSAYS AND METHODS FOR SCREENING FOR CARDIOVASCULAR DISEASE USING LDL SUBCLASSES AND ENDOTHELIAL NITRIC OXIDE/PEROXYNITRITE BALANCE” (Ohio University, priority 2019, published 2022).
“Also recorded” adds a separate entry of the source.

Test system: human umbilical vein endothelial cells (HUVECs)
Assay: Effect of eNOS pathway modulators on LDL-stimulated NO and ONOO− release
Assay type: cell-based
Conditions: for ONOO− production after pre-treatment vs control / NO production after pre-treatment vs control: 30 min pre-treatment, then LDL subclass A, B or I 800 μg/mL; for [NO]/[ONOO−] ratio with subclass I: pre-treatment, then subclass I 800 μg/mL; for effect on ratio of [NO]/[ONOO−]: modulators of L-arginine/NO pathway
Description: Concurrent measurements of NO and ONOO^− were performed with electrochemical nanosensors (diameter: 200-300 nm). The designs of nanosensors are based on chemically modified carbon-fiber technology. Each of those sensors was made by depositing a sensing material on the tip of the carbon fiber. A conductive film of polymeric nickel (II) tetrakis (3-methoxy-4hydroxy-phenyl) porphyrinic was used for the NO sensor and a polymeric film of Mn (III)-paracyclophanyl-porphyrin was used for the ONOO^− sensor. NO and ONOO^− release from its basal level were measured by using amperometry with time (detection limit of 1 nmol/L and resolution time <50 ms). Each sensor was calibrated by using linear calibration curves from 50 nmol/L to 1000 nmol/L and/or standard addition methods before and after measurements with aliquots of NO or ONOO^− standard solutions, respectively.
Endothelial cells were seeded to 24 well plates and cultured in complete medium until confluent monolayer formed. Then the study was carried out as follows:
A control group was incubated in EBM only. After incubation, endothelial cells were stimulated with direct injection of subclasses A, B and I (800 μg/mL), and the release of NO/ONOO^− was measured with nanosensors.

Structure (SMILES) | ONOO− production after pre-treatment vs control | [NO]/[ONOO−] ratio with subclass I | NO production after pre-treatment vs control | effect on ratio of [NO]/[ONOO−] | decrease of ONOO− concentration (VAS2870 10 μmol/L, LDL 800 μg/mL)
COC(=O)[C@@H](N)CCCNC(=N)N[N+](=O)[O-] [L-NAME, L-N^G-arginine methyl ester] | diminished | lower than one | – | – | –
N=C(N)NCCC[C@H](N)C(=O)O [L-arginine] | diminished; also recorded: decrease ONOO^− generation | greater than one | increase NO production | favorably increasing the ratio of [NO]/[ONOO^−] | –
c1ccc(Cn2nnc3c(Sc4nc5ccccc5o4)ncnc32)cc1 [VAS2870] | diminished | – | – | – | 20-27 % of control group
C[C@H](O)C(=O)C1=Nc2c(nc(N)[nH]c2=O)NC1 [sepiapterin] | diminished; also recorded: lower level of ONOO^− | greater than one | higher level of NO | favorably increasing the ratio of [NO]/[ONOO^−] | –
